Test system: PT22AV
Test: Minimum inhibitory concentration of fungicides in NYDA agar
Conditions: resistance level of PT22AV to the fungicide

For N#Cc1c[nH]cc1-c1cccc2c1OC(F)(F)O2 [Fludioxonil], the Resistance level was “Resistant”.

— patent publication US20240188569A1, “NEW YEAST STRAIN AND ITS USES FOR THE CONTROL OF PHYTOPATHOGENS” (AGROVENTURES LLC, priority 2021, published 2024)
